Tested on: summer barley (HORVS)
Test: Reduction of damage by mesosulfuron-methyl on summer barley (safener greenhouse test, post-emergence)
Assay type: in vivo, summer barley (HORVS; cv. Montoya)
Set-up: key: 0: no reduction in damage (appearance corresponding to the herbicide control); 1: slight reduction in damage; 2: distinct reduction in damage; 3: significant reduction in damage; 4: complete reduction in damage (appearance corresponding to the untreated control)
Conditions: safener dose 500 g/ha, sprayed at BBCH10-12, followed by mesosulfuron-methyl 40-60 g/ha, visual assessment 9-13 days after application, 2 repeats
Protocol: 2.1 Relative Action of Selected Compounds of the Invention Using the Example of Reduction of Damage by Mesosulfuron-Methyl on Summer Barley (HORVS) The seeds of the crop plants to be treated are laid out in sandy loam in plastic pots (diameter ˜4 cm), covered with soil and grown in a greenhouse under good conditions for germination and growth. The trial plants were treated at the early leaf stage (BBCH10-BBCH12). In the course of this, the inventive compounds of the general formula (I) formulated in the form of wettable powders (WP) were sprayed onto the above-ground parts of the plants as an aqueous suspension with a water application rate corresponding to 800 l/ha with addition of wetting agent (e.g. 0.2% Genapol-LRO or 0.2% Mero) in the specified dose. This was followed by the application of the herbicide. For this purpose, mesosulfuron-methyl, formulated in the form of water-dispersible granules (WG), was sprayed onto the above-ground parts of the plants in the form of an aqueous dispersion with a water application rate corresponding to 800 l/ha with addition of wetting agent (e.g. 0.2% Genapol-LRO or 1 l/ha Biopower) in a dose of 40-60 g/ha. […] 9-13 days after application, the efficacy of the test compounds was assessed visually. […]

COC(=O)COc1nc(-c2ccc(F)cc2F)n(-c2ccc(F)cn2)n1 [I.40-11, Methyl {[5-(2,4-difluorophenyl)-1-(5-fluoropyridin-2-yl)-1H-1,2,4-triazol-3-yl]oxy}acetate]
Efficacy of the safener (efficacy code): 2

Reference: patent US12617760B2, “[(5-phenyl-1-heteroaryl-1H-triazol-3-yl)oxy] acetic acid derivatives as safeners for the protection of useful plants and crop plants” (BAYER AKTIENGESELLSCHAFT, priority 2020, dated 2026)
